Laboratory results: US20210299109A1, “AGENTS FOR TREATING CANCER AND METHODS FOR IDENTIFYING SAID AGENTS” (MINERVA BIOTECHNOLOGIES CORPORATION, priority 2017, published 2021)

Experiments:
[1] = test system: human naïve state stem cells; test: stem cell drug screen on naïve state stem cells; assay type: cell-based; details: for effect on naïve stem cells: pluripotency, growth, differentiation (first panel, FIG. 2, 7-10): 6 uM, 3 days, with or without NME7AB
Description: (§1) The stem cell screening assay, was performed in both the presence and absence of the stem cell growth factors: NME7AB for growing naïve stem cells or FGF for growing primed stem cells. If the cognate growth factor was present, then the biological or small molecule would have to compete away the growth factor to get an effect. Therefore, we expected to see more of an effect when the growth factor, FGF for primed stem cells or NME7AB or NME1 dimers for naïve stem cells, was absent. The effect of the compounds on stem cells was visually determined and compounds were ranked 0-4, with 4 being the greatest effect and 0 being no observable effect. The major effect that was observed was a change from pluripotent stem cell morphology, which is a cobblestone pattern of small round cells with a large nucleus to cytoplasm ratio, to that of differentiating stem cells, which are elongated, large and flattened cells with a smaller nucleus to cytoplasm ratio. […] […] In this particular case, the naïve state stem cells were maintained in a naïve state by culturing in a media containing NME7AB or NME1 dimers. However, other methods such as 2i and 5i (Silva et al., 2008, Nichols and Smith, 2009, Theunissen et al., 2014)] can be used to maintain stem cells in a more naïve state. In this case primed state stem cells were cultured in bFGF over a layer of MEFs, although it is known that any bFGF containing media will maintain stem cells in the primed state.
Percent inhibition of cancer cell migration was performed in a wound healing assay. The percent area that the invading cancer cells occupied, in the presence of a drug candidate compared to the controls, was quantified by Image J cell software which enables cell counting from photographs. IC50's were calculated by performing migration experiments at several compound concentrations and then applying Hill's equation. Inhibition of cancer cell proliferation was quantified by automated cell counting in the presence or absence of a drug candidate. Here, the inhibition of cancer cell proliferation was scored 1 if proliferation was inhibited by 25%, 2 if inhibited by 50%, 3 for 75% and 4 for the highest degree of inhibition of proliferation, and 0 for the lowest. The effect of the drug candidates on stem cell pluripotency or proliferation was scored by eye, based on cell morphology and cell density, with 0 being no change in morphology or cell number and 4 being the most profound effect, with the stem cells taking on the morphology of a differentiating cell, along with much fewer cells indicative of inhibition of proliferation. As an example, FIGS. 30A-30F show photographs of naïve stem cell, primed stem cell and fibroblast controls. FIGS. 31A-31F show the effect of compounds of the invention on naïve state stem cells, where the number of ‘+’ signs indicates the score from 0-4 of ability of compound to inhibit pluripotency, proliferation of naïve stem cells or ability to induce their differentiation. […] FIGS. 36-44 and 65-87 show photographs and IC50 graphs of the compounds of the invention, inhibiting cancer cell migration and invasion. Cancer cell migration is a hallmark of metastatic cancer.
Stem cells whether embryonic or induced pluripotent stem (iPS) cells were cultured in a minimal, serum-free media that contained human recombinant NME7AB at a concentration of 2-32 nM wherein 4-8 nM is preferred and 4 nM is more preferred. […]

human fibroblasts = test: effect on fibroblast proliferation (surrogate for normal cells); assay type: cell-based; details: 500 nM final concentration
Excerpt: However, fibroblasts are more differentiated than stem cells but are able to self-replicate for defined periods of time. We tested selected compounds of the invention to determine if these compounds were just cytotoxic or if they selectively affected stem cells and, importantly, cancer cells, but not normal, healthy cells. Here, we used fibroblasts as a surrogate for normal cells. […] […] Each compound was scored for its effect on fibroblast proliferation where “+” indicates 25% inhibition of fibroblast growth, “++” 50% inhibition and “+++” 75% inhibition of growth.

[2] = test system: human primed state stem cells; test: stem cell drug screen on primed state stem cells; assay type: cell-based
Description: as §1
Percent inhibition of cancer cell migration was performed in a wound healing assay. The percent area that the invading cancer cells occupied, in the presence of a drug candidate compared to the controls, was quantified by Image J cell software which enables cell counting from photographs. IC50's were calculated by performing migration experiments at several compound concentrations and then applying Hill's equation. Inhibition of cancer cell proliferation was quantified by automated cell counting in the presence or absence of a drug candidate. Here, the inhibition of cancer cell proliferation was scored 1 if proliferation was inhibited by 25%, 2 if inhibited by 50%, 3 for 75% and 4 for the highest degree of inhibition of proliferation, and 0 for the lowest. The effect of the drug candidates on stem cell pluripotency or proliferation was scored by eye, based on cell morphology and cell density, with 0 being no change in morphology or cell number and 4 being the most profound effect, with the stem cells taking on the morphology of a differentiating cell, along with much fewer cells indicative of inhibition of proliferation. As an example, FIGS. 30A-30F show photographs of naïve stem cell, primed stem cell and fibroblast controls. […]

naïve stem cells = test: RT-PCR of differentiation markers and super-enhancer target genes in naïve stem cells; assay type: cell-based, human
Excerpt: The genes whose expression increased as a result of treatment with the compounds of the invention, in a concentration dependent manner, are fibronectin and vimentin, which both increase as stem cells initiate differentiation and NF1, which is one of the first genes to increase when stem cells begin to differentiate down the neural lineage. […] Thus, compounds of the invention that induce markers of differentiation are useful for the treatment of cancers, because cancer cells, by definition, have de-differentiated, which allows them to continually self-replicate. […] Expression of metastatic marker E-cadherin was reduced and expression of differentiation markers fibronectin, vimentin and NF1 were increased. Novel compounds of the invention are highly specific. […] Although we discovered that NME1 dimers, NME7AB and NME7-X1 are all activating ligands of the MUC1* growth factor receptor and they bind to its extracellular domain, we have developed ample evidence that both NME7AB and NME7-X1 have other binding partners and can exert oncogenic effects, independent of MUC1*.
We first used RT-PCR to measure expression of these super-enhancer target genes and other genes of interest in naïve stem cells in the presence or absence of a few compounds of the invention. […] We also measured expression of microRNA-145, in response to treatment with compounds of the invention. […]

[3] = test system: MUC1* positive cancer cells; details: in vitro; cited from earlier work
cancer cells = details: cited from earlier work

Cc1sc2c(c1C)C(c1ccc(Cl)cc1)=N[C@@H](CC(=O)OC(C)(C)C)c1nnc(C)n1-2 [JQ1(+)]
effect on naïve stem cell growth [1]: inhibitory effect
induction of differentiation and growth inhibition of naïve state stem cells ([1]; 500 nM or 1 uM, cells cultured in NME7AB or NME1 dimers): dramatically induced differentiation
effect on fibroblasts (human fibroblasts): same effect on fibroblasts as it does on primed state stem cells
effect on primed stem cell growth [2]: not primed stem cell growth
effect on the size of primed stem cell colonies ([2]; treated for 3 days, 500 nM or 1 uM): modest effect
induction of differentiation of primed state stem cells ([2]; treated for 3 days, JQ1 at 500 nM or 1 uM, bFGF absent): None of these agents appeared to induce differentiation
up-regulation of markers of differentiation (fibronectin, vimentin, NF1) in naïve stem cells (naïve stem cells): did not cause up-regulation of markers of differentiation

COC(=O)c1ccc(C2c3[nH]c4ccccc4c3CCN2C(=O)c2cccc(Cl)c2)cc1 (centres unmarked) [MN0642]
effect on naïve stem cells: pluripotency, growth, differentiation (first panel, FIG. 2, 7-10) [1]: induced differentiation
inhibition of growth of cancer cells [3]: inhibit the growth of cancer cells in vitro

CCCCNC(=O)N1CCc2c([nH]c3ccccc23)C1C(C)c1ccccc1 (centres unmarked) [MN1130]
effect on naïve stem cells: pluripotency, growth, differentiation (first panel, FIG. 2, 7-10) [1]: induced differentiation
effect on primed stem cells (first panel, FIG. 2-6) ([2]; 6 uM, 3 days, with or without FGF): modest effect

Cc1[nH]c(/C=C2\C(=O)Nc3ccc(S(=O)(=O)N(C)c4cccc(Cl)c4)cc32)c(C)c1C(=O)N1CCN(C)CC1 [SU11274]
up-regulation of markers of differentiation (fibronectin, vimentin, NF1) in naïve stem cells (naïve stem cells): did not cause up-regulation of markers of differentiation

FLR peptide: synthetic peptide corresponding to the extracellular domain of MUC1*, FLR also known as PSMGFR (SEQ ID NO:3) (GTINVHDVETQFNQYKTEAASRYNLTISDVSVSDVPFPFSAQSGA; the extracellular domain of Native Primary Sequence of the MUC1 Growth Factor Receptor (nat-PSMGFR - an example of “PSMGFR”))
effect on naïve stem cells: pluripotency, growth, differentiation (first panel, FIG. 2, 7-10) [1]: induced differentiation
inhibition of the transition of regular cancer cells to metastatic cancer cells (cancer cells): inhibit the transition of regular cancer cells to metastatic cancer cells
